pIC50: −log10 of the molar value.
These compounds were tested against DNA-dependent protein kinase catalytic subunit (Homo sapiens, UniProt P78527) (assay: Inhibition of DNA-PK Kinase).
Protocol: IC50 was calculated using GraphPad Prism 8.

DNA-dependent protein kinase catalytic subunit, sequence (P78527 whole entry): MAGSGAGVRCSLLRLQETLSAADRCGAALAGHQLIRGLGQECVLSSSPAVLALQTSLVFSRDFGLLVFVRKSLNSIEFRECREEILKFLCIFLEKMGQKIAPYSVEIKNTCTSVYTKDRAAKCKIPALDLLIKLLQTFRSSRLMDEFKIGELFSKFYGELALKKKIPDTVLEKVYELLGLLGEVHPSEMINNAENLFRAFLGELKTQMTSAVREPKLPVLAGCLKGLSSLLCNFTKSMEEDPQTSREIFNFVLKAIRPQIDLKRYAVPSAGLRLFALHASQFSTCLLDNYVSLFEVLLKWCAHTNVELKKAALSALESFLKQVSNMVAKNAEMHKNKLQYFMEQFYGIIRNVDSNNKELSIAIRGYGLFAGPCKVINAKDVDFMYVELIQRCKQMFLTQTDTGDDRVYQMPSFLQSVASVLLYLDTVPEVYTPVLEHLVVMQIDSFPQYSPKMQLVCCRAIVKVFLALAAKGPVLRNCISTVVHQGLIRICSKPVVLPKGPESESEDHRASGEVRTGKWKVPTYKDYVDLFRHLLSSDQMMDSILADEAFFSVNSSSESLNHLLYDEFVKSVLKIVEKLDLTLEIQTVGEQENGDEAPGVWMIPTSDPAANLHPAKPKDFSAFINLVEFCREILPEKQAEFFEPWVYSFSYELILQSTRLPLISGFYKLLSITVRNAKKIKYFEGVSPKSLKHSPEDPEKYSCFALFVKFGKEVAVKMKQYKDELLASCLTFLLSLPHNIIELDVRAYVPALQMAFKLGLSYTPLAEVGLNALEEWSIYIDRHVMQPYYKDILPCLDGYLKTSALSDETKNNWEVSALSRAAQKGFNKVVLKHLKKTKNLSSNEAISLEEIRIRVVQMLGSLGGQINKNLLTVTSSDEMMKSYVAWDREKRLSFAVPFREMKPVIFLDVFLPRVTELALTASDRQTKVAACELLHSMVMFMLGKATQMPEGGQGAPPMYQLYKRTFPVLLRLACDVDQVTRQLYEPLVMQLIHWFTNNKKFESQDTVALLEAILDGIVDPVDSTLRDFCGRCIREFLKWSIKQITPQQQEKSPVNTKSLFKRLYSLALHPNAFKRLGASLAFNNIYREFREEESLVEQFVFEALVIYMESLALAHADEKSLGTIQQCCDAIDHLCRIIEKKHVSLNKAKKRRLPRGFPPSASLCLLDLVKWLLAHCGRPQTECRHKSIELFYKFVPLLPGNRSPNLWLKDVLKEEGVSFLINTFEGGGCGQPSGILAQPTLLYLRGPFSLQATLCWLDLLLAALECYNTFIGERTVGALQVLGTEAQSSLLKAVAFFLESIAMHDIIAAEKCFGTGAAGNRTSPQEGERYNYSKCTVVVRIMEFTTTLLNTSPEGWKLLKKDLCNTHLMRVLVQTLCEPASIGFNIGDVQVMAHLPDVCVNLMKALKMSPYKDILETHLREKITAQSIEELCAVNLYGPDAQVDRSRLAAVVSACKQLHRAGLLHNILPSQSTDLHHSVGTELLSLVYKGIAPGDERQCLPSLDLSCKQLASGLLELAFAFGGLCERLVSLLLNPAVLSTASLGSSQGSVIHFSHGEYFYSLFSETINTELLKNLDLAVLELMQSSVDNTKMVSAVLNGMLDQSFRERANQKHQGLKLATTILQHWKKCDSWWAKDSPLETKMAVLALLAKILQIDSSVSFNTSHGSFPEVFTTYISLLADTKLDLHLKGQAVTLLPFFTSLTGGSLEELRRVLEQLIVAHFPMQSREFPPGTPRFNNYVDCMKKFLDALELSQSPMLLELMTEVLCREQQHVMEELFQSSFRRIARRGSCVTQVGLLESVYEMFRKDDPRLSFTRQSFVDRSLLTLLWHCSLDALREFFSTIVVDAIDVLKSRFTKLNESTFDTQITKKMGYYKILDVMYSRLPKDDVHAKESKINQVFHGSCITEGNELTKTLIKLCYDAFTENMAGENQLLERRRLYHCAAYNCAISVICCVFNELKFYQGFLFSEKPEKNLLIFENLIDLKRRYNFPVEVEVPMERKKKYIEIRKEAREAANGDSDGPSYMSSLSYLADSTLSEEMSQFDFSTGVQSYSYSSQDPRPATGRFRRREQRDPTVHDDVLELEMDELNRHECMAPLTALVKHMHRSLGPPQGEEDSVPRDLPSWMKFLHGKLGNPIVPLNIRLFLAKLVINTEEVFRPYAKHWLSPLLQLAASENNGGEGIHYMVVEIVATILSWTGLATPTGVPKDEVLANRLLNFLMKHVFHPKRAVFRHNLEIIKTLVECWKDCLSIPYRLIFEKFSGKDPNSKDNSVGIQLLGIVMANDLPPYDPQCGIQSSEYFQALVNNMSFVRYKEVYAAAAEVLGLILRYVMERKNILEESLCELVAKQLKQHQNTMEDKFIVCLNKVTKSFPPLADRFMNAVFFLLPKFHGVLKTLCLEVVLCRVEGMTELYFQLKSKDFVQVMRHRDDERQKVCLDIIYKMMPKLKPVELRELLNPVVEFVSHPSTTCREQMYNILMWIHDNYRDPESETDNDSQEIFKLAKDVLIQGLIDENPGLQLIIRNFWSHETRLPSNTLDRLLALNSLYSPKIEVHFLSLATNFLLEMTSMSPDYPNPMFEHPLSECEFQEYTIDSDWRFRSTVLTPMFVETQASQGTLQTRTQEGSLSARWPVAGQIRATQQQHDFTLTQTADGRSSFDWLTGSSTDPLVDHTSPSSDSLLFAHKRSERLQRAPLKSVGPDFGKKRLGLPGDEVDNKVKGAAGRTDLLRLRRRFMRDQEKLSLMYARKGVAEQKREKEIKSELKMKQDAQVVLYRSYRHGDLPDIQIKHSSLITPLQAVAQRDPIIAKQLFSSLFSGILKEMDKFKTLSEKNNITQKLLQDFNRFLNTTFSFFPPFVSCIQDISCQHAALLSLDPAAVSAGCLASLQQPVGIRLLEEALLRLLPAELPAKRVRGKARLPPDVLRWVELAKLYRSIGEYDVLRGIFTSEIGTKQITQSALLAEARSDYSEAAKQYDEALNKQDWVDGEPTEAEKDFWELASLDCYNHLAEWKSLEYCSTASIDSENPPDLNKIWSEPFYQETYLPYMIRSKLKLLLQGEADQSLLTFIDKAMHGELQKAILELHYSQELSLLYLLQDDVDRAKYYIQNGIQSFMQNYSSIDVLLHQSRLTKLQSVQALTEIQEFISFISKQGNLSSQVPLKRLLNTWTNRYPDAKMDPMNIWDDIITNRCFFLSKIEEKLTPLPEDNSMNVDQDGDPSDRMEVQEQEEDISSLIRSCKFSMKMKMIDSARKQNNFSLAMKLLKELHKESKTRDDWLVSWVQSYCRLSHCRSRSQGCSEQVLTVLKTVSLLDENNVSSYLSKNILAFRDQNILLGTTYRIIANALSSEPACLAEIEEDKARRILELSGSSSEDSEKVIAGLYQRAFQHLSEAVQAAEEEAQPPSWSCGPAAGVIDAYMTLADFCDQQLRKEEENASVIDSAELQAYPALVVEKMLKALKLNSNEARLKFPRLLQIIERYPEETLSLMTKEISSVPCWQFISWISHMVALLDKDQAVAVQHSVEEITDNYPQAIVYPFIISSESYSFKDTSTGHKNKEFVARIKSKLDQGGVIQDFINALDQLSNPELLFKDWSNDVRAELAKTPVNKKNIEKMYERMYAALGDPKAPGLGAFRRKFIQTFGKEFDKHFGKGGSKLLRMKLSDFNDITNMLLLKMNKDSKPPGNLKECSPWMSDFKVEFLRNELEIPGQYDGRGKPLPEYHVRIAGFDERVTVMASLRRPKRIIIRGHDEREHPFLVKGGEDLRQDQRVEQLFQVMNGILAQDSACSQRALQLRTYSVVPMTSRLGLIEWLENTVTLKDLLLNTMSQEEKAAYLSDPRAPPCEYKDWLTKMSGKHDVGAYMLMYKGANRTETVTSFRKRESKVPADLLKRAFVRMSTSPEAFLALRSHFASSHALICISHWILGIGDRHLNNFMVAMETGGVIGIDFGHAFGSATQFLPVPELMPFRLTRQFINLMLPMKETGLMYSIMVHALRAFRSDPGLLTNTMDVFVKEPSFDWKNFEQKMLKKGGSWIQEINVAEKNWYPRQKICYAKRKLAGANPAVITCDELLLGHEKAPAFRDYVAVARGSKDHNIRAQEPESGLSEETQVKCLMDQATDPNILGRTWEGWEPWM

Row | pIC50 | Structure (SMILES)
1 | 9.28 | Cc1cc2ncnn2cc1Nc1ncc2c(n1)n(C1C3CC4CC1CC(O)(C4)C3)c(=O)n2C (centres undefined) [US12552793, Compound 16-1]
2 | 8.60 | Cc1cc2ncnn2cc1Nc1ncc2c(n1)n(C1C3CC4CC1CC(O)(C4)C3)c(=O)n2C (centres undefined) [US12552793, Compound 16-2]
3 | 11.00 | Cc1cc(C(N)=O)c(F)cc1Nc1ncc2c(n1)n(C13CC4CC(C1)C(O)C(C4)C3)c(=O)n2C (centres undefined) [US12552793, Compound 17-1]
4 | 8.66 | Cc1cc(C(N)=O)c(F)cc1Nc1ncc2c(n1)n(C13CC4CC(C1)C(O)C(C4)C3)c(=O)n2C (centres undefined) [US12552793, Compound 17-2]
5 | 10.52 | [2H]C1(O)C2CC3CC1CC(n1c(=O)n(C)c4cnc(Nc5cn6ncnc6cc5C)nc41)(C3)C2 (centres undefined) [US12552793, Compound 20-1]
6 | 8.96 | [2H]C1(O)C2CC3CC1CC(n1c(=O)n(C)c4cnc(Nc5cn6ncnc6cc5C)nc41)(C3)C2 (centres undefined) [US12552793, Compound 20-2]
7 | 8.55 | [2H]C1(O)C2CC3CC1CC(n1c(=O)n(C)c4cnc(Nc5cc(F)c(C(N)=O)cc5C)nc41)(C3)C2 (centres undefined) [US12552793, Compound 23-1]
8 | 9.07 | [2H]C1(O)C2CC3CC1CC(n1c(=O)n(C)c4cnc(Nc5cc(F)c(C(N)=O)cc5C)nc41)(C3)C2 (centres undefined) [US12552793, Compound 23-2]
9 | 11.00 | COC1(OC)C2CC3CC1CC(n1c(=O)n(C)c4cnc(Nc5cc(F)c(C(N)=O)cc5C)nc41)(C3)C2 [US12552793, Compound 26]

Reference: BindingDB's records for patent US12552793 (Kangbaida (Sichuan) Biotechnology Co., 2026)
